The results in this text go back to patent US20240002388A1, “PYRIMIDINONE COMPOUNDS AND USES THEREOF” (HUTCHISON MEDIPHARMA LIMITED, priority 2020, published 2024).

Assay [1] concerns the target RIPK1 recombination protein (Homo sapiens (Human), UniProt Q13546). Description: RIPK1 kinase activity assay (ADP-Glo). Particulars: for IC50: RIPK1 kinase activity, ADP-Glo, 10 μM ATP. The class given is biochemical. The method, then: RIPK1 recombination protein: synthesized by Shanghai Medicilon Inc. under the commission by Hutchison MediPharma Limited (50 g of cell pellet was resuspended in 250 mL of lysis buffer (50 mM Tris, pH 7.5, 250 mM NaCl, 1 mM DTT, protease inhibitor 1:50), the cells were ultrasonically lysed using a sonicator (the power set to 4) on ice for 3×30 minutes; then centrifugation was carried out at 4° C., at 15,000 g for 30 minutes to clarify the suspension, the soluble pellet was resuspended into 10 mL of glutathione agarose, and incubated at 4° C. for 2 hours; then the beads were loaded into the column and washed with lysis buffer (no protease inhibitors) to baseline, and eluted with 20 mM of reduced glutathione (50 mM Tris, pH 8). The fractions identified by SDS-PAGE as containing the protein of interest were collected (10 mL of total volume), concentrated to about 5 mL and loaded into 300 mL superdex75 column (GE Healthcare) equilibrated with buffer (50 mM Tris, pH 7.5, 150 mM NaCl, 1 mM DTT, 10% glycerol, pH 7.5). RIP1 protein was eluted as a dimer from the superdex75 column. The protein concentration was determined by the Bradford assay using BSA as the standard. The yield was 12.5 mg at 0.63 mg/mL. The protein was aliquoted and frozen at −80° C. for later use.
ADP-Glo Kinase kit can be used to measure ADP level in kinase activity assay so as to distinguish the inhibitory effects of different compounds on RIPK1 kinase activity. The ADP-Glo assay was usually divided into three steps. Firstly, the kinase converted ATP to ADP and phosphorylated the substrate at the same time; secondly, ATP digestion reagent was added to degrade all ATP in the reaction system; finally, a detection reagent was added to reduce ADP to ATP, and energy from ATP was transferred to […] which thus emitting a chemical luminescence that can be detected. Assay procedure can refer to manufacture's technical manual.
(2) Reagent Preparation: • 1.33× kinase buffer: 5× kinase buffer stock (250 mM of NaCl, 150 mM of MgCl2, 2.5 mg/ml BSA (bovine serum albumin), 0.1% CHAPS (3-[(3-cholamidopropyl)-dimethyl-ammonio]-1-propane sulfonate), and 5 mM of dithiothreitol) was diluted with water to 1.33× kinase buffer; • RIPK1 enzyme solution: the kinase was dissolved in 1.33× kinase buffer to make 40 nM as the final working concentration; • ATP solution: 10 mM ATP stock solution in water was dissolved in 1.33× kinase buffer to make 10 μM as the final working concentration; • 4× compound preparation: the compound was diluted in a 3-fold gradient, and finally 4% DMSO aqueous solution containing different concentrations of the compound was obtained. The final concentrations of the test compound were 10, 3.33, 1.11, 0.37, 0.12, 0.04, 0.014, and 0.005 μM.
The assay set up two control groups, one was 100% inhibition group (no enzyme treatment), another was 0% inhibition group (no inhibitor treatment), each control group contained 8 replicate wells. 2.5 μl of serially diluted compound was added to each well of a 384-well plate, with double replicate wells, and 4% DMSO solution was added to control wells. Then 5 μl of RIPK1 enzyme solution was added to each well except 100% inhibition control, 5 ul of buffer was added to 100% inhibition control, after that, 2.5 μl of ATP solution was added to all wells, the plate was vibrated at 1000 rpm for 30 seconds to perform transient centrifuge; finally the 384-well assay plate was put in the shaking incubator, and incubated at room temperature for 3 hours. After the enzymatic reaction was completed, 5 μl of ATP depletion reagent was added to each well, the mixture was centrifuged transiently, then the 384-well assay plate was put in the shaking incubator, and incubated at room temperature for 1 hour. 5 μl of ADP detection reagent was added to each well, and the mixture was centrifuged transiently, and incubated at room temperature for 0.5 hour. […]
(ADP-Glo first removes unused ATP, then detects ADP through luciferase.)

Assay [2] concerns U937 cell line (human histiocytic lymphoma cell line). Nature of the assay: U937 cell viability assay (TNF-α + Z-VAD-FMK induced necroptosis). The note with it: Homo sapiens, U-937; U937 cells, hTNF-α 0.1 μg/mL + Z-VAD-FMK 50 μM, 20 hours, CellTiter-Glo. The class given is cell-based. The method, then:
U937 cell line (human histiocytic lymphoma cell line): purchased from ATCC (American Type Culture Collection) Cell Bank, cultured in a 5% CO2, 37° C. incubator, and RPMI 1640 medium which contains L-glutamine, 1.5 g/L sodium bicarbonate, 2.383 g/L HEPES solution, 0.11 g/L sodium pyruvate and 4.5 g/L glucose, plus 10% fetal bovine serum (FBS) was used. • RPMI 1640 medium: GIBCO, Cat #A10491-01; • Fetal bovine serum (FBS): GIBCO, Cat #10099-141C; • Dimethyl sulfoxide (DMSO): Sigma, Cat #D2650; • Recombinant Human TNF-alpha Protein (hTNF-α): R&D system, Cat #210-TA-100; • Pan-Caspase inhibitor (Z-VAD-FMK): Selleckchem, Cat #S7023; • CellTiter-Glo 2.0 Cell Viability Assay kit: Promega, Cat #G9242; • Microwell plate reader: Envision, Perkin Elmer; • 96-well plate: Corning, Cat #3917.
The U937 cells at the logarithmic phase were taken out, centrifuged to remove the medium, washed with PRMI 1640 medium containing 1% FBS, and diluted with 1% FBS-containing RPMI 1640 medium to 2.5×10^5 cells/ml, inoculated at 70 μL/well into a 96-well plate, i.e., 1.75×10^4 cells/well. The plate was cultured in a 5% CO2, 37° C. cell incubator. After incubating for 1 hour, the test compound was diluted to the corresponding concentrations using DMSO with 3-fold serial dilution, then the corresponding concentration of DMSO diluted solution was diluted into 1% FBS-containing RPMI 1640 medium, and 10 μL/well of the diluted test compound with different concentrations (final concentration of test compound was 1.0, 0.333, 0.111, 0.037, 0.012, 0.004, 0.0014 and 0.0005 μM, while final concentration of DMSO was 0.3%) or 10 μL/well control solution (3% DMSO) were added to the cell culture system respectively, with the total volume being 80 μL/well; Then 10 μL of Z-VAD-FMK solution diluted with 1% FBS-containing RPMI 1640 medium (final concentration of 50 μM) or 10 μL of control solution (2.5% DMSO) was added to each well, with the total volume being 90 μL/well. The plate was incubated in a 5% CO2, 37° C. cell culture incubator for 1 hour.
After being cultured for 1 hour, 10 μL of human recombinant TNF-α protein diluted with 1% FBS-containing RPMI 1640 medium (final concentration of 0.1 μg/mL) or 10 μL/well control solution (1% FBS-containing RPMI 1640 medium) was added to each well. The plate was incubated in a 5% CO2, 37° C. cell culture incubator for 20 hours.
The cell culture plate was taken out from the incubator, and left to stand at room temperature for 30 minutes. Meanwhile, CellTiter-Glo viability assay kit was put from freezer to room temperature, and 50 μL of CellTiter-Glo reagent was added to all wells, the plate was shaken for 1 minutes, protected from light at room temperature for 10 minutes then read the plate on Envision to get the luminescence signal.
The 96-well plate in the dark was taken out, and the chemiluminescence was determined using the Envision microwell plate reader as the signal value of each well.
The mean signal value of the wells of the mixed solution of recombinant human TNF-alpha protein (final concentration of 0.1 μg/mL) and Pan-Caspase inhibitor (final concentration of 50 μM) was used as the lower value, and the mean signal value of the wells without stimulation was used as the upper value. According to the signal value of each well, the inhibition rate of each concentration of every compound was calculated, and the IC50 value of compound was obtained by Model 205 in XL-Fit 5.3 software (ID Business Solutions Limited).
Inhibition rate %=[(Luminescence readout of treated compound−Luminescence readout of positive control)/(Luminescence readout of negative control−Luminescence readout of positive control)]×100%, wherein

RIPK1 recombination protein, sequence (Q13546 other isoform, or with tags, fused parts or gaps): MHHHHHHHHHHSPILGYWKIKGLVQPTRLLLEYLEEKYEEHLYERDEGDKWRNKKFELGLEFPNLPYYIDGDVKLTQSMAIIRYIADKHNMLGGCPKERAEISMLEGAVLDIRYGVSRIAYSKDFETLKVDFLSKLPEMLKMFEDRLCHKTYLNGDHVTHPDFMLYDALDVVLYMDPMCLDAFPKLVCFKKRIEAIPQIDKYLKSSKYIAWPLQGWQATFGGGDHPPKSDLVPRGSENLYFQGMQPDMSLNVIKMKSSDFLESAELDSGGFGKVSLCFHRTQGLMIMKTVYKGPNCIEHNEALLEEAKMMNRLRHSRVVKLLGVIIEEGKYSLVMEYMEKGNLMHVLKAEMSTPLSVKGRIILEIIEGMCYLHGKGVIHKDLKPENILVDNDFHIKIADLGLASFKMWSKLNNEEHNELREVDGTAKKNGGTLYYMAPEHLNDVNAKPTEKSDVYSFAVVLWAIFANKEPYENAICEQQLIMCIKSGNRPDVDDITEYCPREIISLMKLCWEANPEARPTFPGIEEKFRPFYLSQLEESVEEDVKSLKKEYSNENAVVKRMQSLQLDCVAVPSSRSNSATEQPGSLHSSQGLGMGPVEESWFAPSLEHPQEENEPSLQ

What is called IC50 is the concentration that gives 50% inhibition. In the case of `C[C@@H](c1ccccc1)n1cnc(C(=O)NC2(c3ccc(-c4cncn(C)c4=O)cc3)CC2)n1` [Compound 56, (S)—N-(1-(4-(1-methyl-6-oxo-1,6-dihydropyrimidin-5-yl)phenyl)cyclopropyl)-1-(1-phenylethyl)-1H-1,2,4-triazole-3-carboxamide], in assay [1], the IC50 was 189 nM.

Turning to `CC(C)n1ncc2cnc(C(=O)NC3(c4ccc(-c5cncn(C)c5=O)cc4Cl)CC3)nc21` [Compound 32], the inhibition at 3 µM in assay [1] (3 μM compound, read-out: Inhibition rate at the compound concentration of 3 μM) was determined as 82.5%.

With `Cc1cc(C2(NC(=O)c3ncc4cnn(C(C)C)c4n3)CC2)ccc1-c1cncn(C)c1=O` [Compound 27], the IC50 turned out to be 102 nM in assay [2] and 46 nM in assay [1].

With `Cn1cncc(-c2ccc(C3(NC(=O)c4n[nH]c(Cc5ccccc5)n4)CC3)c(F)c2)c1=O` [Compound 48], the IC50 in assay [2] came out at 39 nM; in assay [1] it was 53 nM.

Regarding `CC(C)n1ncc2cnc(C(=O)NC3(c4ccc(-c5cncn(C)c5=O)c(C(F)(F)F)c4)CC3)nc21` [Compound 24], the results for the IC50 in assay [2] and in assay [1] were 161 nM and 89 nM, respectively.

`C[C@H](c1ccccc1)c1nnc(C(=O)NC2(c3ccc(-c4cncn(C)c4=O)cc3)CC2)[nH]1` [Compound 57, (R)—N-(1-(4-(1-methyl-6-oxo-1,6-dihydropyrimidin-5-yl)phenyl)cyclopropyl)-5-(1-phenylethyl)-4H-1,2,4-triazole-3-carboxamide]: the IC50 in assay [1] is 531 nM.

Consider `Cn1cncc(-c2ccc(C3(NC(=O)c4nc5n(n4)[C@H](c4ccccc4)CC5)CC3)cc2)c1=O` [Compound 53, (S)—N-(1-(4-(1-methyl-6-oxo-1,6-dihydropyrimidin-5-yl)phenyl)cyclopropyl)-5-phenyl-6,7-dihydro-5H-pyrrolo[1,2-b][1,2,4]triazole-2-carboxamide], for which the IC50 in assay [2] stood at 554 nM; in assay [1] it was 121 nM.

With `Cn1c(N)ncc(-c2ccc(C3(NC(=O)c4nnc(Cc5ccccc5)[nH]4)CC3)cc2)c1=O` [Compound 7], the IC50 was found to be 68 nM in assay [2] and 39 nM in assay [1].

Take `C[C@@H](c1ccccc1)c1nnc(C(=O)NC2(c3ccc(-c4cncn(C)c4=O)cc3)CC2)[nH]1` [Compound 58, (S)—N-(1-(4-(1-methyl-6-oxo-1,6-dihydropyrimidin-5-yl)phenyl)cyclopropyl)-5-(1-phenylethyl)-4H-1,2,4-triazole-3-carboxamide]: the IC50 in assay [1] is 139 nM.

On to `Cc1ncc(-c2ccc(C3(NC(=O)c4ncc5cnn(C(C)C)c5n4)CC3)cc2)c(=O)n1C` [Compound 31], for which the IC50 in assay [1] came to 432 nM.
